# Test results: ChEMBL document CHEMBL5096176, “AAA ATPases as therapeutic targets: Structure, functions, and small-molecule inhibitors” (Eur J Med Chem, 2021)
# pEC50, pIC50: −log10 of the molar value.
# Legend:
# [1] = target: T1, Spastin (Drosophila melanogaster, UniProt Q8I0P1); assay: Inhibition of wild-type Drosophila melanogaster Spastin (209 to 758 residues) in presence of ATP by NADH-coupled fluorescence assay
# T1 sequence (Q8I0P1 whole entry): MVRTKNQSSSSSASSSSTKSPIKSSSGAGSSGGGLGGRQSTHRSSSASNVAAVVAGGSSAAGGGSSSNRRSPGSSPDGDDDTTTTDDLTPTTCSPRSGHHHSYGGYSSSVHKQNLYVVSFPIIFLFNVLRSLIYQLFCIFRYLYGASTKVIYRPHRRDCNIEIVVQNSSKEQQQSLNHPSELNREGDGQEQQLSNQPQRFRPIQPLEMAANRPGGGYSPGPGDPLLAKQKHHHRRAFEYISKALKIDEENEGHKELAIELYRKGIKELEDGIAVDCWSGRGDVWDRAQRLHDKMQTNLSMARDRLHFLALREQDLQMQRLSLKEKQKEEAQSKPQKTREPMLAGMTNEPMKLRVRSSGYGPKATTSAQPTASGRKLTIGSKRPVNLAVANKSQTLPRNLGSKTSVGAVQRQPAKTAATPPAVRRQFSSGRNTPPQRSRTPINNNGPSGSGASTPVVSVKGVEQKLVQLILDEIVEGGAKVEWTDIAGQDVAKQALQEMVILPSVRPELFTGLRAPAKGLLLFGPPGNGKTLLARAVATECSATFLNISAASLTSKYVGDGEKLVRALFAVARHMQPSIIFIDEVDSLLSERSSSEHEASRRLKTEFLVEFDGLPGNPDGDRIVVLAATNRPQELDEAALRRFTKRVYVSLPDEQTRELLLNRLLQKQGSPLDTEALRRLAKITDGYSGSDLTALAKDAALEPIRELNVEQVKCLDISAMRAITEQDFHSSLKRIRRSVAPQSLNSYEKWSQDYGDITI
# [2] = Inhibition of Drosophila melanogaster Spastin N527C mutant (209 to 758 residues) in presence of ATP by NADH-coupled fluorescence assay
# [3] = tested on: HeLa; assay: Anticancer activity against human HeLa cells assessed as cell growth inhibition; format: functional, cell-based
# [4] = tested on: Schizosaccharomyces pombe; assay: Antifungal activity against Schizosaccharomyces pombe assessed as fungal growth inhibition incubated for 18 hrs by absorbance based assay; format: functional
# [5] = Selectivity index, ratio of CC50 for MDCK cells to EC50 for Oseltamivir-resisitant Influenza A virus (A/North Carolina/39/2009 (H1N1)) infected in MDCK cells; format: toxicity, cell-based; conditions: dog, read-out: Ratio CC50/EC50
# [6] = tested on: Cytomegalovirus; assay: Antiviral activity against human Cytomegalovirus infected in human fibroblast cells assessed as viral growth inhibition preincubated for 24 hrs with compound followed by viral infection by plaque assay; format: functional, organism-based; conditions: Human betaherpesvirus 5, Fibroblast
# [7] = tested on: Influenza A virus; assay: Antiviral activity against Influenza A virus (A/Texas/04/2009 (H1N1)) infected in MDCK cells over expressing ST6Gal I assessed as inhibition of viral replication by plaque assay; format: functional, organism-based
# [8] = tested on: Influenza A virus; assay: Antiviral activity against Influenza A virus (A/Denmark/528/2009 (H1N1)) infected in MDCK cells over expressing ST6Gal I assessed as inhibition of viral replication by plaque assay; format: functional, organism-based
# [9] = Selectivity index, ratio of CC50 for MDCK cells to EC50 for Influenza A virus (A/Texas/04/2009 (H1N1)) infected in MDCK cells; format: toxicity, cell-based; conditions: dog, read-out: Ratio CC50/EC50
# [10] = Selectivity index, ratio of CC50 for MDCK cells to EC50 for Influenza A virus (A/Denmark/528/2009 (H1N1)) infected in MDCK cells; format: toxicity, cell-based; conditions: dog, read-out: Ratio CC50/EC50
# [11] = target: T2, Spastin (Homo sapiens, UniProt Q9UBP0); assay: Inhibition of human Spastin in presence of ATP
# T2 sequence (Q9UBP0 whole entry): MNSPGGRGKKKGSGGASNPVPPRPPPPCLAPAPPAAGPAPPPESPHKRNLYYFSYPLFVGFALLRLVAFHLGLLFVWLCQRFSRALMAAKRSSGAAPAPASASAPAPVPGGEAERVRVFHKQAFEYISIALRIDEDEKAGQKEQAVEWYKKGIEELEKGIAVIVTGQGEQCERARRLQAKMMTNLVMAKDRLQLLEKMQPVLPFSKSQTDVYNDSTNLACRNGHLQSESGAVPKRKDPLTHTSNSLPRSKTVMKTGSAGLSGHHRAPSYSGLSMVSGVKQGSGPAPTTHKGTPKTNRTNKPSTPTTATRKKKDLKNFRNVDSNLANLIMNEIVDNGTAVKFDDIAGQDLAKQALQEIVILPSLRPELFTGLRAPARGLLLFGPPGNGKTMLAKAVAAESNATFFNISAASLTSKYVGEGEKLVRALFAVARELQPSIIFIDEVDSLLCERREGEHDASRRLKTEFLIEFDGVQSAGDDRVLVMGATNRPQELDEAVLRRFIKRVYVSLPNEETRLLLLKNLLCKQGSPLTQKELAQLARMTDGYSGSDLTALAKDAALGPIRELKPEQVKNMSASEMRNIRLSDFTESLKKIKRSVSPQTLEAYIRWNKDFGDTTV
# [12] = tested on: Huh-7; assay: Anticancer activity against human Huh-7 cells assessed as inhibition of cell proliferation incubated for 4 days by MTS assay; format: functional, cell-based; conditions: Huh-7, 96 h
# [13] = tested on: Hep 3B2; assay: Anticancer activity against human Hep3B cells assessed as inhibition of cell proliferation incubated for 4 days by MTS assay; format: functional, cell-based; conditions: 96 h
# [14] = target: T3, Transitional endoplasmic reticulum ATPase (Homo sapiens, UniProt P55072); assay: Inhibition of p97 (unknown origin) incubated for 15 mins in presence of ATP by ADP Glo assay
# [15] = target: T3, Transitional endoplasmic reticulum ATPase; assay: Inhibition of p97 (unknown origin) in presence of ATP by Biomol Green Reagent based assay
# T3 sequence (P55072 whole entry): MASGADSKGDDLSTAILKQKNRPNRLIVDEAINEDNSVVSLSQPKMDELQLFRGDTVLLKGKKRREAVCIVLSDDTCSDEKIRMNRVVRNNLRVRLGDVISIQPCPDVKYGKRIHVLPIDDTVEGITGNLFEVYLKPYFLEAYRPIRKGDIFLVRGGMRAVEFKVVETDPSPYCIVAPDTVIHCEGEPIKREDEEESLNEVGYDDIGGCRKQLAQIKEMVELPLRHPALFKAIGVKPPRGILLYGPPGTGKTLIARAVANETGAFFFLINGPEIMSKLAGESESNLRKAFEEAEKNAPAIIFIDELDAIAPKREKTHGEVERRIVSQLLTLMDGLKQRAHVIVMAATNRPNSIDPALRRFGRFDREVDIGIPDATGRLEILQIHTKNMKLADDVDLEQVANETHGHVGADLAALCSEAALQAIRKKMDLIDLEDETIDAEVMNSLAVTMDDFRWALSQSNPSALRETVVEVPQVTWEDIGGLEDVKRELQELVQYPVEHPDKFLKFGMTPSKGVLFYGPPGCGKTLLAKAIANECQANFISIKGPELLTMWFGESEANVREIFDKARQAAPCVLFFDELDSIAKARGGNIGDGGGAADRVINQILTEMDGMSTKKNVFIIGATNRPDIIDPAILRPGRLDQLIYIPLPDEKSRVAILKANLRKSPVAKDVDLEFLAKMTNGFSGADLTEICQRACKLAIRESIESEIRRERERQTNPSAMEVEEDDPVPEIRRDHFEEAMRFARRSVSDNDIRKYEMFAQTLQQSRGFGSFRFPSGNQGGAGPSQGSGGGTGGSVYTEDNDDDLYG
structure (smiles),measurement,setting,value
C[C@@H]1CNCCN1c1nc(Nc2cc(C(C)(C)C)[nH]n2)c2cccc(F)c2n1,pIC50,[1],5.32
same,pIC50,[2],6.64
O=C(CCl)Nc1cccc(NC2=NS(=O)(=O)c3ccccc32)c1,pIC50,[3],5.52
C=C(C)CSc1nnc2c(n1)[nH]c1ccccc12,GI50,[4],0.136 µM
Cc1cc(OCc2nnc(SC3CCCC3)n2-c2cccnc2)ccc1-c1ccc(S(C)(=O)=O)cc1,selectivity ratio,[5],50
same,pIC50,[6],6.89
same,pEC50,[7],7.52
same,pEC50,[8],7.52
same,selectivity ratio,[9],50
same,selectivity ratio,[10],50
CC(C)[C@@H]1CN(c2nc(Nc3cc(C(C)(C)C)[nH]n3)c3cc[nH]c3n2)CCN1,pIC50,[11],7.00
O=c1[nH]c2ccccc2n1C1CCN(Cc2ccc(-c3nc4cc5[nH]cnc5cc4nc3-c3ccccc3)cc2)CC1,pIC50,[12],5.40
same,pIC50,[13],5.46
C[C@@H]1CNCCN1c1nc(Nc2cc(C(C)(C)C)[nH]n2)c2ccccc2n1,pIC50,[11],5.36
C=C(C)CSc1nnc2c(n1)[nH]c1cc(Br)ccc12,GI50,[4],0.014 µM
Nc1nc(O)c2ncn(COC(CO)CO)c2n1 [GANCICLOVIR],pIC50,[14],5.89
CC(=O)c1c(O)c(C)c(O)c(Cc2c(O)c3c(c(C(=O)/C=C/c4ccccc4)c2O)OC(C)(C)C=C3)c1O [ROTTLERIN],pIC50,[12],6.24
same,pIC50,[13],6.60
Cc1cc(OCc2cnc(SC3CCCC3)n2-c2cccnc2)ccc1C#CCCNC(C)C,pIC50,[15],8.15
